Results as given in article PMC4515243, “Phase 1 pharmacokinetic study of the oral pan-AKT inhibitor MK-2206 in Japanese patients with advanced solid tumors” (Cancer Chemotherapy and Pharmacology, 2015).
Values joined by “and” are separate entries in the source; they are usually repeats but may differ in a detail not shown here. Identical values can stand only once.

System: Japanese patients with advanced solid tumors
Experiment: phase 1 safety and tolerability (DLT, adverse events) in Japanese patients;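 note: toxicities graded by NCI CTCAE version 3.0, treatment given until disease progression or unacceptable toxicity, three to nine patients enrolled per dose level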
[1] = all cohorts (n = 24), all treatment cycles

NC1(c2ccc(-c3nc4ccn5c(=O)[nH]nc5c4cc3-c3ccccc3)cc2)CCC1 [MK-2206]
Eosinophilia, drug-related adverse event, patients (135 mg QW (n = 3), Grades 3–5): 0 | Erythema multiforme, drug-related adverse event, patients (135 mg QW (n = 3), Grades 3–5): 0 | Fatigue, drug-related adverse event, patients (135 mg QW (n = 3), Grades 3–5): 0 | HbA1C increased, drug-related adverse event, patients (135 mg QW (n = 3), Grades 3–5): 0 | Hyperglycemia, drug-related adverse event, patients (135 mg QW (n = 3), Grades 3–5): 0 | Hypernatremia, drug-related adverse event, patients (135 mg QW (n = 3), Grades 3–5): 0 | Hypoalbuminemia, drug-related adverse event, patients (135 mg QW (n = 3), Grades 3–5): 0 | Hypokalemia, drug-related adverse event, patients (135 mg QW (n = 3), Grades 3–5): 0 | Insulin c-peptide increased, drug-related adverse event, patients (135 mg QW (n = 3), Grades 3–5): 0 | Leukopenia, drug-related adverse event, patients (135 mg QW (n = 3), Grades 3–5): 0 | Localized edema, drug-related adverse event, patients (135 mg QW (n = 3), Grades 3–5): 0 | Lymphopenia, drug-related adverse event, patients (135 mg QW (n = 3), Grades 3–5): 0 | Nausea, drug-related adverse event, patients (135 mg QW (n = 3), Grades 3–5): 0 | Neutropenia, drug-related adverse event, patients (135 mg QW (n = 3), Grades 3–5): 0 | Palmar-plantar erythrodysaesthesia syndrome, drug-related adverse event, patients (135 mg QW (n = 3), Grades 3–5): 0 | Pruritus, drug-related adverse event, patients (135 mg QW (n = 3), Grades 3–5): 0 | Pyrexia, drug-related adverse event, patients (135 mg QW (n = 3), Grades 3–5): 0 | Rash, drug-related adverse event, patients (135 mg QW (n = 3), Grades 3–5): 0 | Stomatitis, drug-related adverse event, patients (135 mg QW (n = 3), Grades 3–5): 0 | Vomiting, drug-related adverse event, patients (135 mg QW (n = 3), Grades 3–5): 0 | patients who discontinued treatment because of grade 2 rash (200 mg QW): One patient | patients with DLTs during Cycle 1 (200 mg QW): Three of the nine | ALT increased, drug-related adverse event, patients (200 mg QW (n = 9), All grades): 3 | Blood creatinine increased, drug-related adverse event, patients (200 mg QW (n = 9), All grades): 6 | Decreased appetite, drug-related adverse event, patients (200 mg QW (n = 9), All grades): 4 | Diarrhea, drug-related adverse event, patients (200 mg QW (n = 9), All grades): 3 | Dry skin, drug-related adverse event, patients (200 mg QW (n = 9), All grades): 2 | Eosinophil count increased, drug-related adverse event, patients (200 mg QW (n = 9), All grades): 5 | Eosinophilia, drug-related adverse event, patients (200 mg QW (n = 9), All grades): 4 | Erythema multiforme, drug-related adverse event, patients (200 mg QW (n = 9), All grades): 4 | Fatigue, drug-related adverse event, patients (200 mg QW (n = 9), All grades): 4 | HbA1C increased, drug-related adverse event, patients (200 mg QW (n = 9), All grades): 4 | Hyperglycemia, drug-related adverse event, patients (200 mg QW (n = 9), All grades): 6 | Hypernatremia, drug-related adverse event, patients (200 mg QW (n = 9), All grades): 4 | Hypoalbuminemia, drug-related adverse event, patients (200 mg QW (n = 9), All grades): 2 | Hypokalemia, drug-related adverse event, patients (200 mg QW (n = 9), All grades): 2 | Insulin c-peptide increased, drug-related adverse event, patients (200 mg QW (n = 9), All grades): 5 | Leukopenia, drug-related adverse event, patients (200 mg QW (n = 9), All grades): 8 | Localized edema, drug-related adverse event, patients (200 mg QW (n = 9), All grades): 4 | Lymphopenia, drug-related adverse event, patients (200 mg QW (n = 9), All grades): 2 | Nausea, drug-related adverse event, patients (200 mg QW (n = 9), All grades): 3 | Neutropenia, drug-related adverse event, patients (200 mg QW (n = 9), All grades): 4 | Palmar-plantar erythrodysaesthesia syndrome, drug-related adverse event, patients (200 mg QW (n = 9), All grades): 2 | Pruritus, drug-related adverse event, patients (200 mg QW (n = 9), All grades): 5 | Pyrexia, drug-related adverse event, patients (200 mg QW (n = 9), All grades): 5 | Rash, drug-related adverse event, patients (200 mg QW (n = 9), All grades): 6 | Stomatitis, drug-related adverse event, patients (200 mg QW (n = 9), All grades): 6 | Vomiting, drug-related adverse event, patients (200 mg QW (n = 9), All grades): 3 | ALT increased, drug-related adverse event, patients (200 mg QW (n = 9), Grades 3–5): 1 | Blood creatinine increased, drug-related adverse event, patients (200 mg QW (n = 9), Grades 3–5): 0 | Decreased appetite, drug-related adverse event, patients (200 mg QW (n = 9), Grades 3–5): 1 | Diarrhea, drug-related adverse event, patients (200 mg QW (n = 9), Grades 3–5): 0 | Dry skin, drug-related adverse event, patients (200 mg QW (n = 9), Grades 3–5): 0 | Eosinophil count increased, drug-related adverse event, patients (200 mg QW (n = 9), Grades 3–5): 0 | Eosinophilia, drug-related adverse event, patients (200 mg QW (n = 9), Grades 3–5): 0 | Erythema multiforme, drug-related adverse event, patients (200 mg QW (n = 9), Grades 3–5): 2 | Fatigue, drug-related adverse event, patients (200 mg QW (n = 9), Grades 3–5): 0 | HbA1C increased, drug-related adverse event, patients (200 mg QW (n = 9), Grades 3–5): 0 | Hyperglycemia, drug-related adverse event, patients (200 mg QW (n = 9), Grades 3–5): 2 | Hypernatremia, drug-related adverse event, patients (200 mg QW (n = 9), Grades 3–5): 1 | Hypoalbuminemia, drug-related adverse event, patients (200 mg QW (n = 9), Grades 3–5): 0 | Hypokalemia, drug-related adverse event, patients (200 mg QW (n = 9), Grades 3–5): 0 | Insulin c-peptide increased, drug-related adverse event, patients (200 mg QW (n = 9), Grades 3–5): 0 | Leukopenia, drug-related adverse event, patients (200 mg QW (n = 9), Grades 3–5): 1 | Localized edema, drug-related adverse event, patients (200 mg QW (n = 9), Grades 3–5): 0 | Lymphopenia, drug-related adverse event, patients (200 mg QW (n = 9), Grades 3–5): 2 | Nausea, drug-related adverse event, patients (200 mg QW (n = 9), Grades 3–5): 1 | Neutropenia, drug-related adverse event, patients (200 mg QW (n = 9), Grades 3–5): 0 | Palmar-plantar erythrodysaesthesia syndrome, drug-related adverse event, patients (200 mg QW (n = 9), Grades 3–5): 0 | Pruritus, drug-related adverse event, patients (200 mg QW (n = 9), Grades 3–5): 0 | Pyrexia, drug-related adverse event, patients (200 mg QW (n = 9), Grades 3–5): 0 | Rash, drug-related adverse event, patients (200 mg QW (n = 9), Grades 3–5): 0 | Stomatitis, drug-related adverse event, patients (200 mg QW (n = 9), Grades 3–5): 0 | Vomiting, drug-related adverse event, patients (200 mg QW (n = 9), Grades 3–5): 0 | time until onset of DLTs (200 mg QW, grade 3 facial edema and grade 3 erythema multiforme): 10 days | time until onset of DLTs (200 mg QW, grade 3 hyperglycemia and grade 3 erythema multiforme): 11 days | time until onset of DLT (200 mg QW, grade 4 hyponatremia): 10 days | ALT increased, drug-related adverse event, patients (Total (n = 24), All grades): 4 | Blood creatinine increased, drug-related adverse event, patients (Total (n = 24), All grades): 8/24 and 8 | Decreased appetite, drug-related adverse event, patients (Total (n = 24), All grades): 7 | Diarrhea, drug-related adverse event, patients (Total (n = 24), All grades): 10/24 and 10 | Dry skin, drug-related adverse event, patients (Total (n = 24), All grades): 5 | Eosinophil count increased, drug-related adverse event, patients (Total (n = 24), All grades): 7 | Eosinophilia, drug-related adverse event, patients (Total (n = 24), All grades): 13/24 and 13 | Erythema multiforme, drug-related adverse event, patients (Total (n = 24), All grades): 4 | Fatigue, drug-related adverse event, patients (Total (n = 24), All grades): 10 | HbA1C increased, drug-related adverse event, patients (Total (n = 24), All grades): 7 | Hyperglycemia, drug-related adverse event, patients (Total (n = 24), All grades): 12/24 and 12 | Hypernatremia, drug-related adverse event, patients (Total (n = 24), All grades): 5 | Hypoalbuminemia, drug-related adverse event, patients (Total (n = 24), All grades): 4 | Hypokalemia, drug-related adverse event, patients (Total (n = 24), All grades): 4 | Insulin c-peptide increased, drug-related adverse event, patients (Total (n = 24), All grades): 16/24 and 16 | Leukopenia, drug-related adverse event, patients (Total (n = 24), All grades): 12/24 and 12 | Localized edema, drug-related adverse event, patients (Total (n = 24), All grades): 4 | Lymphopenia, drug-related adverse event, patients (Total (n = 24), All grades): 9/24 and 9 | Nausea, drug-related adverse event, patients (Total (n = 24), All grades): 5 | Neutropenia, drug-related adverse event, patients (Total (n = 24), All grades): 9/24 and 9 | Palmar-plantar erythrodysaesthesia syndrome, drug-related adverse event, patients (Total (n = 24), All grades): 4 | Pruritus, drug-related adverse event, patients (Total (n = 24), All grades): 10 | Pyrexia, drug-related adverse event, patients (Total (n = 24), All grades): 13/24 and 13 | Rash, drug-related adverse event, patients (Total (n = 24), All grades): 20/24 and 20 | Stomatitis, drug-related adverse event, patients (Total (n = 24), All grades): 14/24 and 14 | Vomiting, drug-related adverse event, patients (Total (n = 24), All grades): 4 | ALT increased, drug-related adverse event, patients (Total (n = 24), Grades 3–5): 1 | Blood creatinine increased, drug-related adverse event, patients (Total (n = 24), Grades 3–5): 0 | Decreased appetite, drug-related adverse event, patients (Total (n = 24), Grades 3–5): 1 | Diarrhea, drug-related adverse event, patients (Total (n = 24), Grades 3–5): 1 | Dry skin, drug-related adverse event, patients (Total (n = 24), Grades 3–5): 0 | Eosinophil count increased, drug-related adverse event, patients (Total (n = 24), Grades 3–5): 0 | Eosinophilia, drug-related adverse event, patients (Total (n = 24), Grades 3–5): 0 | Erythema multiforme, drug-related adverse event, patients (Total (n = 24), Grades 3–5): 2 | Fatigue, drug-related adverse event, patients (Total (n = 24), Grades 3–5): 0 | HbA1C increased, drug-related adverse event, patients (Total (n = 24), Grades 3–5): 0 | Hyperglycemia, drug-related adverse event, patients (Total (n = 24), Grades 3–5): 2 | Hypernatremia, drug-related adverse event, patients (Total (n = 24), Grades 3–5): 1 | Hypoalbuminemia, drug-related adverse event, patients (Total (n = 24), Grades 3–5): 0 | Hypokalemia, drug-related adverse event, patients (Total (n = 24), Grades 3–5): 0 | Insulin c-peptide increased, drug-related adverse event, patients (Total (n = 24), Grades 3–5): 0 | Leukopenia, drug-related adverse event, patients (Total (n = 24), Grades 3–5): 1 | Localized edema, drug-related adverse event, patients (Total (n = 24), Grades 3–5): 0 | Lymphopenia, drug-related adverse event, patients (Total (n = 24), Grades 3–5): 6 | Nausea, drug-related adverse event, patients (Total (n = 24), Grades 3–5): 1 | Neutropenia, drug-related adverse event, patients (Total (n = 24), Grades 3–5): 1 | Palmar-plantar erythrodysaesthesia syndrome, drug-related adverse event, patients (Total (n = 24), Grades 3–5): 0 | Pruritus, drug-related adverse event, patients (Total (n = 24), Grades 3–5): 0 | Pyrexia, drug-related adverse event, patients (Total (n = 24), Grades 3–5): 0 | Rash, drug-related adverse event, patients (Total (n = 24), Grades 3–5): 1 | Stomatitis, drug-related adverse event, patients (Total (n = 24), Grades 3–5): 0 | Vomiting, drug-related adverse event, patients (Total (n = 24), Grades 3–5): 0 | treatment-related deaths (all cohorts): No treatment-related deaths | diarrhea related to MK-2206, percent of patients [1]: 41.7% | elevated blood creatinine level related to MK-2206, percent of patients [1]: 33.3% | elevated insulin c-peptide level related to MK-2206, percent of patients [1]: 66.7% | eosinophilia related to MK-2206, percent of patients [1]: 54.2% | hyperglycemia related to MK-2206, percent of patients [1]: 50.0% | leukopenia related to MK-2206, percent of patients [1]: 50.0% | lymphopenia related to MK-2206, percent of patients [1]: 37.5% | neutropenia related to MK-2206, percent of patients [1]: 37.5% | pyrexia related to MK-2206, percent of patients [1]: 54.2% | rash related to MK-2206, percent of patients [1]: 83.3% | stomatitis related to MK-2206, percent of patients [1]: 58.3%
